Source: patent publication US20110077270A1, “Compositions and Methods for Treating Ocular Inflammation with Lower Risk of Increased Intraocular Pressure” (priority 2009, published 2011)
Where “and” joins values, the source holds several entries; their conditions need not be identical. Equal values may be shown once. Read-outs that look alike come from different tables or passages of the source.

What was measured:
[1] = system: MPO activity in iris-ciliary body; experiment: Myeloperoxidase (MPO) activity in iris-ciliary body, rabbit paracentesis model; format: in vivo; conditions: for MPO Unit/g: iris-ciliary body samples collected after the second paracentesis, individual eye samples; for MPO activity in iris-ciliary body, Mean: after second paracentesis, group mean
Procedure: (§1) Each rabbit was placed in a restraint device and tagged with the alphanumeric code. The formulations were instilled (50 μl) into the conjunctival sac of both eyes 180, 120, 90 and 30 min before the first paracentesis; then 15, 30, 90 min after the first paracentesis. To perform the first paracentesis the animals were anaesthetized by intravenous injection of 5 mg/kg Zoletil® (Virbac; 2.5 mg/kg tiletamine HCl and 2.5 mg/kg zolazepam HCl) and one drop of local anesthetic (Novesina®, Novartis) was administered to the eye. Anterior chamber paracentesis was performed with a 26 G needle attached to a tuberculin syringe; the needle was introduced into the anterior chamber through the cornea, taking care not to damage the tissues. Two hours after the first paracentesis, the animals were sacrificed with 0.4 ml Tanax® (Intervet International B.V.) and the second paracentesis was performed. About 100 μl of aqueous humor were removed at the second paracentesis. Aqueous humor was immediately split in four aliquots and stored at −80° C. until analysis. Then both eyes were enucleated and the iris-ciliary body was carefully excised, placed in polypropylene tubes, and stored at −80° C. until analysis.
The activity of MPO was measured as previously described by Williams et al.[5] The iris-ciliary bodies were carefully dried, weighed and immersed in 1 ml of hexa-decyl-trimethyl-ammonium bromide solution. Then, the samples were sonicated for 10 sec on ice by a ultrasound homogenizer (HD 2070, Bandelin electronic), freeze-thawed three times, sonicated for 10 sec and centrifuged at 14,000 g for 10 min to remove cellular debris. An aliquot of the supernatant ([…] was diluted to 3 ml with the o-dianisidine 2HCl/H2O2 solution. The change in absorbance at 460 nm was continuously monitored for 5 min by a spectrophotometer (UV/Vis Spectrometer Lambda EZ 201; Perkin Elmer). The slope of the line (Δ/min) was determined for each sample and used to calculate the number of units of MPO in the tissue as follows:
were ε=11.3 mM^−1. Values were expressed as units of MPO/g of tissue.

[2] = system: PGE2 in the aqueous humor; experiment: Prostaglandin E2 (PGE2) measurement in aqueous humor, rabbit paracentesis model; format: in vivo; conditions: second paracentesis; for PGE2 level in aqueous humor, Mean: group mean; for PGE2 level in aqueous humor: individual eye
Procedure: as §1
For the quantitative determination of PGE2 in the aqueous humor we used the PGE2 Immunoassay kit (R&D Systems; Cat. No. KGE004; Lot. No. 240010). Eleven microliters or 16 μl of aqueous humor were diluted to 110 μl or 160 μl with the calibrator diluent solution provided with the kit. One hundred microliters of samples and of standards were load into a 96-well plate and recorded in a plate layout. Samples were treated following the assay procedure described in the kit. A microplate reader (GDV, Italy; model DV 990 B/V6) set at 450 nm (wavelength correction at 540 nm) was used for making the calibration and analyzing the samples.

[3] = system: rabbit paracentesis model; experiment: Pupillary diameter measurement, rabbit paracentesis model; format: in vivo; conditions: individual eye; for Pupillary diameter T1: −180 min: 50 μl drops, basal; for Pupillary diameter T2: −5 min: 5 min before first paracentesis; for Pupillary diameter T3: +115 min: 5 min before second paracentesis; for Pupillary diameter Δ(T3 − T1): +115 min minus −180 min
Procedure: as §1
The pupillary diameter of both eyes was measured with a Castroviejo caliper 180 min and 5 min before the first paracentesis and 5 min before the second paracentesis.

[4] = system: myocilin protein in CM of monkey TM cells; experiment: Myocilin protein in conditioned media of monkey TM cells (Western blot); format: cell-based, rhesus monkeys (Macaca mulatta); conditions: for EC50: nine monkey TM cell strains; for Efficacy ± SE (weighted average; %): estimated efficacy at 300 nM for inducing myocilin protein expression, normalized to DEX (100%), nine experiments (one per strain)
Procedure: For each study, up to nine TM cell strains, each derived from an individual monkey, were tested separately. Cells were thawed and seeded into 12- or 48-well clusters (Falcon, BD Biosciences; 150,000 and 30,000 cells/well, respectively) in proliferation medium. When cells were 75% to 90% confluent proliferation medium was replaced by a 5:4 mixture of HESFM and Dulbecco's MEM, respectively, supplemented with 10% FBS, with added taurine, ascorbic acid phosphate, glutathione, and antibiotic as for proliferation medium (above), and with 2.72 g/L glucose and 1.72 g/L fructose. At confluence, the medium was changed to Dulbecco's MEM, containing 10% FBS^40, ascorbic acid phosphate, antibiotic, 2.72 g/L glucose and 1.72 g/L fructose. Cells were maintained as stable, confluent monolayers in this latter medium for 4 to 7 days before experimental treatments commenced.
All treatments, including media for vehicle control samples, contained a final DMSO concentration of 0.1% (v/v) across the concentration ranges selected. Treatments lasted 96 hours, with one exchange of medium on the third treatment day. The final 48-hr conditioned media (“CM”) samples were collected in their entirety (0.5 ml), centrifuged briefly to remove particulates, aliquoted, and stored at −20° C. until thawed for analysis.
Undiluted CM was combined with denaturing 4× sample buffer containing 2% SDS, and samples were loaded at equivalent protein content onto 4-20% Tris-HCl polyacrylamide gels (BioRad, Hercules, Calif.). After electrophoresis, proteins underwent wet transfer to […] nitrocellulose (BioRad) for immunoblotting. The filters were blocked with 5% (w/v) nonfat dry milk (BioRad) in Tris-buffered saline plus 0.02% (v/v) Tween-20 (“TBST”; Tween-20 from Calbiochem, San Diego, Calif.), and incubated with a 1:2000 dilution (from 200 μg/ml) of goat anti-recombinant human myocilin antibody (R&D Systems, Minneapolis, Minn.) in blocking buffer, overnight at 4° C. After washing in TBST, the filters were incubated with a 1:25,000 dilution (from 0.8 mg/ml) of horseradish peroxide-conjugated mouse anti-goat IgG (H+L) (Pierce Biotechnology, Rockford, Ill.) in blocking buffer, for 90 minutes at room temperature. After washing in TBST, the blots were developed in SuperSignal® West Dura Extended Duration Substrate (Pierce) for chemiluminescent detection. Bands corresponding to myocilin were digitally captured and stored using a FluorChem Imager (Alpha-Innotech, San Leandro, Calif.), with all blots receiving equal exposure/capture times. The imager system software was then used to calculate pixel density for equivalent rectangular areas incorporating the bands.
Data underwent Box-Cox transformations for one- or two-way analysis of variance (ANOVA), followed by the Tukey-Kramer test, using JMP software (SAS, Cary, N.C.). The specific transformations used for analyses are mentioned in the figure legends. For each set of triplicate samples from the individual monkey TM cell strains tested, Western blot densitometry values for myocilin protein detected in CM (as geometric means), and relative abundance of myocilin mRNA (as geometric means), were plotted as a function of drug concentrations. P-values less than 0.05 were considered statistically significant. Dose-response curve data were fitted to a re-parameterized four-parameter logistic equation using similar methodology to that previously described, and these equations permitted estimation of the EC50 values±95% confidence intervals, for each drug treatment.

[5] = 0.1% topical formulation, listed as BOL
[6] = 0.5% topical formulation, listed as BOL
[7] = 1% topical formulation, listed as BOL
[8] = Primates, expression of myocilin protein, weighted averages, read-out: EC50 ± SE
[9] = Primates, 96 hours treatment, read-out: EC50, myocilin protein expression

SMILES: Cc1ccc2c(NCC(O)(CC(C)(C)c3cc(F)cc4c3OCC4)C(F)(F)F)cccc2n1 (stereo not drawn) [BOL-303242-X]
- MPO Unit/g ([1]; 0.1% BOL, listed as BOL): 1.04 Unit/g and 1.00 Unit/g and 1.14 Unit/g and 1.06 Unit/g and 1.22 Unit/g and 0.61 Unit/g and 1.05 Unit/g and 0.65 Unit/g
- MPO activity in iris-ciliary body, Mean ([1]; 0.1% topical formulation): 0.971 MPO Unit/g
- Activity in rabbit paracentesis model (preliminary conclusion) ([1]; 0.1%, 0.5%, 1% topical formulations, overall conclusion across biomarkers): active in this model
- MPO Unit/g ([1]; 0.5% BOL, listed as BOL): 0.85 Unit/g and 0.93 Unit/g and 0.79 Unit/g and 1.03 Unit/g and 0.75 Unit/g and 0.74 Unit/g and 0.54 Unit/g and 0.58 Unit/g
- MPO activity in iris-ciliary body, Mean ([1]; 0.5% topical formulation): 0.775 MPO Unit/g
- MPO Unit/g ([1]; 1% BOL, listed as BOL): 0.66 Unit/g and 0.68 Unit/g and 0.49 Unit/g and 0.40 Unit/g and 0.34 Unit/g and 1.02 Unit/g and 0.31 Unit/g and 0.43 Unit/g
- MPO activity in iris-ciliary body, Mean ([1]; 1% topical formulation): 0.542 MPO Unit/g
- PGE2 level in aqueous humor, Mean ([2]; 0.1% topical formulation): 1.452 ng/mL
- PGE2 level in aqueous humor [2, 5]: 1.62 ng/mL and 1.88 ng/mL and 2.15 ng/mL and 0.70 ng/mL and 1.34 ng/mL and 1.03 ng/mL
- PGE2 level in aqueous humor, Mean ([2]; 0.5% topical formulation): 1.384 ng/mL
- PGE2 level in aqueous humor [2, 6]: 2.31 ng/mL and 2.59 ng/mL and 0.53 ng/mL and 0.75 ng/mL and 0.80 ng/mL and 1.62 ng/mL and 1.09 ng/mL
- PGE2 level in aqueous humor, Mean ([2]; 1% topical formulation): 2.168 ng/mL
- PGE2 level in aqueous humor [2, 7]: 0.50 ng/mL and 1.87 ng/mL and 1.71 ng/mL and 4.04 ng/mL and 1.11 ng/mL and 3.78 ng/mL
- Pupillary diameter T1: −180 min [3, 5]: 6.5 mm (4×) and 7.0 mm (3×) and 7.5 mm
- Pupillary diameter T2: −5 min [3, 5]: 6.5 mm (3×) and 7.0 mm (4×) and 7.5 mm
- Pupillary diameter T3: +115 min [3, 5]: 5.0 mm (2×) and 6.0 mm (3×) and 6.5 mm and 5.5 mm (2×)
- Pupillary diameter Δ(T3 − T1) [3, 5]: −1.5 mm (4×) and −0.5 mm (2×) and −1.0 mm (2×)
- Pupillary diameter T1: −180 min [3, 6]: 8.0 mm (3×) and 7.0 mm (3×) and 7.5 mm (2×)
- Pupillary diameter T2: −5 min [3, 6]: 8.0 mm (3×) and 7.0 mm (4×) and 7.5 mm
- Pupillary diameter T3: +115 min [3, 6]: 6.5 mm (4×) and 6.0 mm (2×) and 7.0 mm (2×)
- Pupillary diameter Δ(T3 − T1) [3, 6]: −1.5 mm (2×) and −0.5 mm (2×) and −1.0 mm (4×)
- Pupillary diameter T1: −180 min [3, 7]: 6.0 mm (3×) and 6.5 mm (5×)
- Pupillary diameter T2: −5 min [3, 7]: 6.0 mm (2×) and 6.5 mm (4×) and 7.0 mm (2×)
- Pupillary diameter T3: +115 min [3, 7]: 5.5 mm (2×) and 5.0 mm (4×) and 6.0 mm (2×)
- Pupillary diameter Δ(T3 − T1) [3, 7]: −0.5 mm (3×) and −1.5 mm (2×) and −1.0 mm (3×)
- Myocilin protein released by cultured monkey TM cells compared to DEX ([4]; 3 to 300 nM): significantly lower levels of myocilin protein
- Emax ([4]; Primates, read-out: Maximal efficacy for myocilin protein accumulation, relative to that observed after DEX treatment, computed across all nine TM cell strains): ~50%
- EC50 [4, 8]: 21 ± 4.28 nM
- EC50 [4, 9]: 21 nM
- Efficacy ± SE (weighted average; %) [4]: 53.12 ± 2.20%

SMILES: C[C@@H]1C[C@H]2[C@@H]3CCC4=CC(=O)C=C[C@]4(C)[C@@]3(F)[C@@H](O)C[C@]2(C)[C@@]1(O)C(=O)CO [Dex, dexamethasone, reference compound]
- MPO Unit/g ([1]; 0.1% Dex): 0.71 Unit/g and 0.60 Unit/g and 1.32 Unit/g and 0.48 Unit/g (2×) and 0.39 Unit/g and 0.45 Unit/g and 0.51 Unit/g
- MPO activity in iris-ciliary body, Mean ([1]; 0.1% topical formulation): 0.618 MPO Unit/g
- PGE2 level in aqueous humor, Mean ([2]; 0.1% topical formulation): 2.263 ng/mL
- PGE2 level in aqueous humor ([2]; 0.1% topical formulation): 2.51 ng/ml and 2.32 ng/ml (2×) and 2.10 ng/ml and 3.03 ng/ml and 1.30 ng/ml
- Pupillary diameter T1: −180 min ([3]; 0.1% topical formulation): 6.0 mm and 7.0 mm (2×) and 5.5 mm (2×) and 6.5 mm (3×)
- Pupillary diameter T2: −5 min ([3]; 0.1% topical formulation): 5.5 mm and 6.5 mm (3×) and 6.0 mm (2×) and 7.0 mm and 7.5 mm
- Pupillary diameter T3: +115 min ([3]; 0.1% topical formulation): 5.5 mm (3×) and 6.0 mm (2×) and 4.5 mm and 5.0 mm and 6.5 mm
- Pupillary diameter Δ(T3 − T1) ([3]; 0.1% topical formulation): −0.5 mm (3×) and −1.5 mm (2×) and 0.5 mm and 0.0 mm and −2.0 mm
- Myocilin protein level over control ([4]; 300 nM, one of the monkey TM cell strains, CM of second 48-hour period): 1233%
- EC50 [4, 8]: 14.6 ± 2.65 nM
- EC50 [4, 9]: 14.6 nM
- Efficacy ± SE (weighted average; %) [4]: 100 ± 6.09%
